Test results from patent US20040254243A1 (priority 2001, published 2004).
Like-named read-outs stand apart in the source and are kept apart here.

Assays:
[1] = pKa values from the literature
[2] = cited from earlier work

Compound | pK, mean value ([1]; mean of pK1 and pK2) | pKa ([2]; acetonitrile/water (3/1)) | pKa ([2]; methanol/water (3/1)) | pKa ([1]; acetonitrile/water (3/1) and methanol/water (3/1))
N=C(N)NCCC[C@H](N)C(=O)O [arginine] | about 5.6 |  |  | 
CC(C(=O)O)c1cccc(C(=O)c2ccccc2)c1 (stereo not shown) [ketoprofen, 2-(3-benzoylphenyl)propionic acid] |  | 5.02 | 5.94 | ~5.5
